Reference: patent US20230085945A1, “ORTHOGONAL SAFETY SWITCHES TO ELIMINATE GENETICALLY ENGINEERED CELLS” (The Board of Trustees of the Leland Stanford Junior …, priority 2020, published 2023)

Key:
[1] = test system: undifferentiated NANOG^iCasp9-YFP hPSCs; assay: Viability of undifferentiated NANOG^iCasp9-YFP hPSCs after AP20187 (FACS, alamar blue; dose and time course); type: cell-based, human
Procedure: FIG. 9: Efficacy of the NANOG^iCasp9-YFP safety switch (related to FIG. 3). A) Undifferentiated NANOG^iCasp9-YFP hPSCs were treated with AP20187 at the indicated concentrations for 24 hours, and then the percentage of viable remaining cells was subsequently analyzed using FACS analysis (left) and alamar blue staining (right). For the FACS analysis, the percentage of cells shown represents viable cells (i.e., DAPI-negative cells obtained after DAPI staining) that were then gated for YFP+ (i.e., NANOG^+) cells. For the alamar blue analysis, wild-type hPSCs were used as a negative control. […] AP20187 doses equal to or greater than 100 nM may prevent efficient killing of NANOG^iCasp9-YFP hPSCs by considerably downregulating NANOG. Gene expression is depicted normalized to the reference gene YWHAZ (i.e., YWHAZ=1.0). C) Undifferentiated NANOG^iCasp9-YFP hPSCs were treated with the indicated doses of AP20187 for various lengths of time (6, 12, 24, 48, 72 hours) and then alamar blue assay was performed immediately thereafter to quantify the extent of cell death. […] D) Immunofluorescent imaging of NANOG^iCasp9-YFP hESCs in the undifferentiated state and after differentiation into day 6 sclerotome as marked by TWIST1 expression, both without and with treatment of cells with 1 nM AP20187 for 24 hours. […] The following marker genes were assessed in each respective cell-type: sclerotome (bone) progenitors (TWIST1, SOX9, PAX1, PAX9), liver progenitors (SOX17, HNF4A, AFP, TBX3), and forebrain (neural) progenitors (PAX6, FOXG1, OTX2, SIX3). F) Further validation of NANOG^iCasp9-YFP using a simulated mixed cell culture assay. NANOG^iCasp9-YFP undifferentiated hPSCs and hPSC-derived derived sclerotome cells were mixed at a 3:7 ratio, respectively. Mixed cells were treated with AP20187, and 24 hours post-treatment, FACS analysis was done to assess remaining NANOG^iCasp9-YFP hPSCs in culture.
Alamar Blue proliferation assay—hESCs were cultured in mTeSR1 (in the presence or absence of AP20187 at the indicated concentrations). After 24 hours of AP20187 treatment, mTeSR1 media with Alamar Blue (concentration based on manufacturer's protocol) was changed for both untreated and treated samples. A control well containing media+Alamar Blue was used to assess blank wells and to therefore to measure and subtract fluorescence noise.
Flow cytometric quantification of viable cells—NANOG^iCasp9-YFP hESCs were dissociated into single cells with Accutase and 1×10^6 cells were plated per well in a 6-well plate pre-coated with Matrigel. […] Subsequently, to quantify the percentage of surviving cells, the cultures were dissociated with TrypLE Express. […] YFP^+ (i.e., NANOG^+) cells were analyzed (Beckman Coulter CytoFlex Analyzer) to count live cells for both untreated and AP20187-treated groups. […]

[2] = test system: NANOG^iCasp9-YFP hPSC-derived day-6 liver progenitors, bone progenitors and forebrain progenitors; assay: Survival of differentiated hPSC-derived tissue progenitors after AP20; type: cell-based, human; details: 24-hour AP20 treatment
Procedure: FIG. 3: Implementation of the NANOG^iCasp9-YFP safety switch. A) Schema depicting how drug AP20187 induces dimerization of Caspase9 in undifferentiated NANOG^iCasp9-YFP hESCs, subsequently triggering cell death (top left). NANOG^iCasp9-YFP hESCs were treated for 24 hours with increasing concentrations of AP20187. AP20187 was withdrawn, and cultures were further grown in mTeSR1 to allow any surviving hESCs to grow; any surviving colonies were counted 1 week later (top right). Alkaline phosphatase staining of whole wells of a 12-well plate after 24-hour treatment with AP20187 (bottom). […] Bioluminescent imaging of mice occurred weekly for 5 weeks with no transplant control (NTC) animals included for relative luminescence normalization. Total flux (photons/sec) was measured for each animal and averaged. […] The percentage of surviving cells was calculated relative to untreated controls. […]
Cell count assay—hESCs were dissociated with EDTA and 5×10^5 cells were plated per well of a 6-well plate that was pre-coated with Matrigel. […] Subsequently, cells were dissociated and the number of viable cells were counted using the Bio-Rad TC20™ Automated Cell Counter (trypan blue exclusion). […]

Q: Which results are given for CC[C@H](C(=O)N1CCCC[C@H]1C(=O)O[C@H](CCc1ccc(OC)c(OC)c1)c1cccc(OCC(=O)NCC(CNC(=O)COc2cccc([C@@H](CCc3ccc(OC)c(OC)c3)OC(=O)[C@@H]3CCCCN3C(=O)[C@@H](CC)c3cc(OC)c(OC)c(OC)c3)c2)CN(C)C)c1)c1cc(OC)c(OC)c(OC)c1 [AP20]?
A: concentration that activates the NANOG^iCasp9-YFP system [1]: 1 nM; duration of treatment that sufficed to eliminate hESCs [1]: 12 h; time to activity / cell death ([1]; 1 nM AP20187): ≤ 12 h; IC50 ([1]; undifferentiated NANOG^iCasp9-YFP hPSCs): 0.065 nM; differentiated progenitors spared / remaining viable [2]: > 95%
